In patent US12686668B2, “Leukotriene synthesis inhibitors” (Naegis Pharmaceuticals Inc., priority 2019, dated 2026):

How the values were obtained:
[1] = system: LTC4 production in MC/9 cells; test: MC/9 HPLC assay, inhibition of LTC4 production; format: cell-based; conditions: Mus musculus; for inhibition at 3 µM: MC9, 3 μM, A23187 stimulated; for inhibition at 1 µM: MC9, Table 2 column 3, no concentration in head (1 μM according to b732), read-out: % Inhibition LTC4
Procedure: (§1) Cultured MC/9 cells (3×10^6 cells) in 1 mL HBSS were pre-incubated with a series of concentrations of compound solubilized in DMSO for 30 minutes. Production of leukotrienes were stimulated with the addition of 1 μM calcium ionophore (A23187), diluted from a 4 mM DMSO stock in HBSS, and incubated at room temperature for 20 minutes. The reaction was stopped with the addition of 500 μL of methanol containing 20 ng/mL prostaglandin B2 as an internal standard. Samples were collected and stored at −20° C. at least 2 hr or overnight before centrifuged at 13,000 rpm for 15 minutes and loaded onto C18 SEP-PAK columns (Canadian Lifesciences IS12000) for solid phase extraction. The leukotrienes were analyzed by HPLC using an ACE C18 column (4.5 mm×150 mm, 5 m) eluted with acetonitrile/methanol/water mixture with H3PO4, pH 3.5 (37:26:37) with a flow rate of 1.8 mL/min. The amount of LTB4 (Cayman Chemical, 20110) and LTC4 (Cayman Chemical, 20210) were calculated based on reference standards and the level of inhibition of LTB4 production induced by the test compounds was calculated relative to control samples. The results are provided in Table 2, where Compound No. refers to the compounds identified in Table 1.

[2] = system: LTB4 production in porcine or human whole blood; test: Whole blood HPLC assay, inhibition of LTB4 production; format: cell-based; conditions: 5 point curve, porcine or human whole blood (not specified)
Procedure: Porcine or human whole blood (1 mL) was pre-incubated with a series of concentrations of compound solubilized in DMSO for 30 minutes. Production of leukotrienes were stimulated with the addition of 20 μM calcium ionophore (A23187), diluted from a 4 mM DMSO stock in HBSS, and incubated at room temperature for 20 minutes. In porcine blood 20 μM arachidonic acid was added in addition to the calcium ionophore. The blood was centrifuged at 2,000 rpm for 15 minutes, and the plasma fraction removed for further processing. Plasma samples were diluted with 500 μL acidified water (HCl pH 3.0) and loaded onto C18 SEP-PAK columns (Canadian Lifesciences IS12000) for solid phase extraction. The leukotrienes were analyzed by HPLC using an ACE C18 column (4.5 mm×150 mm, 5 m) eluted with acetonitrile/methanol/water mixture with H3PO4, pH 3.5 (37:26:37) with a flow rate of 1.8 mL/min. The amount of LTB4 (Cayman Chemical, 20110) was calculated based on reference standards and the level of inhibition of LTB4 production induced by the test compounds was calculated relative to control samples. The results provided in Table 3 are IC50 values calculated based on a 5 point curve, where Compound No. refers to the compounds identified in Table 1.

[3] = system: LTB4 production in MC/9 cells; test: MC/9 HPLC assay, inhibition of LTB4 production; format: cell-based; conditions: Mus musculus, MC9, Table 2 column 4, no concentration in head (1 μM according to b732), read-out: % Inhibition LTB4
Procedure: as §1

[4] = molecular target: T1, recombinant human leukotriene A4 hydrolase enzyme (Homo sapiens, UniProt P09960); test: Amino-peptidase assay, alanine-4-nitroanalide; format: biochemical; conditions: negative values = augmented peptidase activity, read-out: % Inhibition aminopeptidase-Alanine-4-nitroanalide activity of LTA4H (3 μM)
T1 construct: purchased Cayman Chemical 10007817
T1 sequence (P09960 1-611): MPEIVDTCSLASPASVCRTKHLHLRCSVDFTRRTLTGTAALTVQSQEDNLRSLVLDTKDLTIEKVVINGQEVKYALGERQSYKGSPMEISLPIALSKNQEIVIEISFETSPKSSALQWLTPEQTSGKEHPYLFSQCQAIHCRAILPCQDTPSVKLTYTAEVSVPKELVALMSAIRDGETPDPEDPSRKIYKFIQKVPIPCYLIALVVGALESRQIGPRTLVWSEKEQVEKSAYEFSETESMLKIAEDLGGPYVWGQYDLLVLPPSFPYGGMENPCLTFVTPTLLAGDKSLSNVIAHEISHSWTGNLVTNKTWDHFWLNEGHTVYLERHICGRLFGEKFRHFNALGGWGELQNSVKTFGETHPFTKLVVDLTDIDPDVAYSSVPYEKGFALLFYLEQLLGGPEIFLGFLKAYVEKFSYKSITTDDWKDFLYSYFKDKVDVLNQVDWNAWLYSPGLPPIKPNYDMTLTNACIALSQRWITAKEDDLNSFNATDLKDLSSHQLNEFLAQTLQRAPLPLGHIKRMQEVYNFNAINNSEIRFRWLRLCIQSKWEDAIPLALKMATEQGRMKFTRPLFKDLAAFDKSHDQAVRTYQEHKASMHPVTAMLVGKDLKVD
Procedure: A series of compound concentrations were pre-incubated in the absence of light with 0.5 μg of recombinant human leukotriene A4 hydrolase enzyme (Cayman Chemical 10007817) in 50 μL assay buffer (50 mM Tris-HCl, 100 mM KCl). The reaction was stimulated by adding 50 μL 6 mM alanine-4-nitroanilide (Sigma Aldrich A9325) in assay buffer. The amount of amino-peptidase activity was measured by determining the change in absorbance at 405 nm due to 4-nitroanaline production and comparing the rate of change to a reference standard (Sigma Aldrich 185310). Amino-peptidase activity was compared to control samples and the level of inhibition was calculated. Compounds that augment peptidase activity are represented by negative values.

Row | SMILES | inhibition at 3 µM [1] | inhibition at 1 µM [1] | IC50 [2] | inhibition at 1 µM [3] | inhibition at 3 µM [4]
1 | CCC(O)(CCc1ccc(Oc2nc3ccc(S(C)(=O)=O)cc3s2)c(OC)c1)C(F)(F)F (stereo not shown) [Compound 106, 1-{3-methoxy-4-[(6-methylsulfonyl-1,3-benzothiazol-2-yl)oxy]phenyl}-3-(trifluoromethyl)pentan-3-ol] | 30 to 50% | 10 to 30% | > 10000 nM | 10 to 30% | 
2 | CCC(O)(CCc1ccc(Oc2nc3c(F)cc(F)cc3s2)c(OC)c1)C(F)(F)F (stereo not shown) [Compound 107, 1-{4-[(4,6-difluoro-1,3-benzothiazol-2-yl)oxy]-3-methoxyphenyl}-3-(trifluoromethyl)pentan-3-ol] | > 90% | 70 to 90% | > 10000 nM | > 90% | 
3 | CCC(O)(CCc1ccc(Oc2nc3ccccc3s2)c(OC(C)C)c1)C(F)(F)F (stereo not shown) [Compound 115, 1-[4-(1,3-benzothiazol-2-yloxy)-3-(iso-propyloxy)phenyl]-3-(trifluoromethyl)pentan-3-ol] | < 10% | < 10% | > 10000 nM | < 10% | 
4 | CCC(O)(CCc1ccc(Oc2nc3ccccc3s2)c(OCC2CC2)c1)C(F)(F)F (stereo not shown) [Compound 117, 1-[4-(1,3-benzothiazol-2-yloxy)-3-(cyclopropyl-methoxy)-phenyl]-3-(trifluoromethyl)-pentan-3-ol] |  | 30 to 50% | > 10000 nM | 70 to 90% | 
5 | COc1cc(CCC(O)c2ccccc2)ccc1Oc1nc2ccccc2s1 (stereo not shown) [Compound 132, 3-[4-(1,3-benzothiazol-2-yloxy)-3-methoxyphenyl]-1-phenylpropan-1-ol] |  | 70 to 90% | > 10000 nM | > 90% | 
6 | COc1cc(C(O)C(F)(F)F)ccc1Oc1nc2ccccc2s1 (stereo not shown) [Compound 137, 1-[4-(1,3-benzothiazol-2-yloxy)-3-methoxyphenyl]-2,2,2-trifluoroethanol] | 50 to 70% |  | > 10000 nM | 10 to 30% | 
7 | CCNC(c1ccc(Oc2nc3ccccc3s2)c(OC)c1)C(F)(F)F (stereo not shown) [Compound 138, 1-[4-(1,3-benzothiazol-2-yloxy)-3-methoxyphenyl]-N-ethyl-2,2,2-trifluoroethanamine] | 70 to 90% | 30 to 50% | 1000 to 10000 nM | 10 to 30% | 
8 | CC(O)CCc1ccc(Oc2nc3ccccc3s2)cc1 (stereo not shown) [Compound 141, 4-[4-(1,3-benzothiazol-2-yloxy)phenyl]butan-2-ol] |  | 10 to 30% | 1000 to 10000 nM | > 90% | 
9 | CCC(C)(O)CCc1ccc(Oc2nc3ccccc3o2)cc1 (stereo not shown) [Compound 146, 1-[4-(1,3-benzoxazol-2-yloxy)phenyl]-3-methylpentan-3-ol] |  | 10 to 30% | 1000 to 10000 nM | > 90% | < 25%
10 | CCC(O)(CCc1ccc(Oc2nc3ccccc3s2)c(C(F)(F)F)c1)C(F)(F)F (stereo not shown) [Compound 155, 1-[4-(1,3-benzothiazol-2-yloxy)-3-(trifluoromethyl)-phenyl]-3-(trifluoromethyl)-pentan-3-ol] |  | < 10% | > 10000 nM | 10 to 30% | 
11 | CC(CCc1ccc(Oc2nc3ccccc3s2)cc1)N1CCCC1 (stereo not shown) [Compound 156, 2-{4-[3-(pyrrolidin-1-yl)butyl]phenoxy}-1,3-benzothiazole] |  | < 10% | 100 to 1000 nM | > 90% | 
12 | CC(CCc1ccc(Oc2nc3ccccc3s2)cc1)N1CCCC1C(=O)O (stereo not shown) [Compound 157, 1-{4-[4-(1,3-benzothiazol-2-yloxy)phenyl]butan-2-yl}pyrrolidine-2-carboxylic acid] |  | < 10% | 1000 to 10000 nM | 70 to 90% | 
13 | CC(O)c1ccc(Oc2nc3ccccc3s2)cc1 (stereo not shown) [Compound 160, 1-[4-(1,3-benzothiazol-2-yloxy)phenyl]ethanol] | < 10% |  | > 10000 nM |  | 
14 | CC(O)(c1ccc(Oc2nc3ccccc3s2)cc1)C(F)(F)F (stereo not shown) [Compound 163, 2-[4-(1,3-benzothiazol-2-yloxy)phenyl]-1,1,1-trifluoropropan-2-ol] | 10 to 30% |  | > 10000 nM |  | 
15 | c1ccc2sc(Oc3ccc(CN4CCCC4)cc3)nc2c1 [Compound 164, 2-[4-(pyrrolidin-1-ylmethyl)phenoxy]-1,3-benzothiazole] | < 10% |  | 100 to 1000 nM |  | > 75%
16 | OC(c1ccc(Oc2nc3ccccc3s2)cc1)C(F)(F)F (stereo not shown) [Compound 166, 1-[4-(1,3-benzothiazol-2-yloxy)phenyl]-2,2,2-trifluoroethanol] | 30 to 50% |  | 100 to 1000 nM |  | < 25%
17 | OC(c1ccc(Oc2nc3ccccc3s2)c(Cl)c1)C(F)(F)F (stereo not shown) [Compound 167, 1-[4-(1,3-benzothiazol-2-yloxy)-3-chlorophenyl]-2,2,2-trifluoroethanol] | 10 to 30% | 10 to 30% | > 10000 nM | 10 to 30% | > 75%
18 | CCC(O)(CCc1ccc(OCc2ccc3ccccc3n2)cc1)C(F)(F)F (stereo not shown) [Compound 185, 1-[4-(quinolin-2-ylmethoxy)-phenyl]-3-(trifluoromethyl)-pentan-3-ol] | 70 to 90% |  | 100 to 1000 nM |  | 
19 | CC(O)(c1ccc(OCc2ccc3ccccc3n2)cc1)C(F)(F)F (stereo not shown) [Compound 197, 1,1,1-trifluoro-2-[4-(quinolin-2-ylmethoxy)phenyl]propan-2-ol] | > 90% |  | 100 to 1000 nM |  | 
20 | CCC(O)(CCc1ccc(OCc2ccc3ccccc3n2)c(OC)c1)C(F)(F)F (stereo not shown) [Compound 198] | 30 to 50% |  | 100 to 1000 nM |  | 
21 | COc1cc(C(C)(O)C(F)(F)F)ccc1OCc1ccc2ccccc2n1 (stereo not shown) [Compound 199, 1,1,1-trifluoro-2-[3-methoxy-4-(quinolin-2-ylmethoxy)phenyl]propan-2-ol] | 30 to 50% |  | > 10000 nM |  | 
